Key:
wheat = experiment: Test A pre-/postemergence greenhouse test; assay type: in vivo, Triticum aestivum; settings: for Plant response rating, Wheat: 0 to 100 scale where 0 is no effect and 100 is complete control; for Wheat plant response rating: 0 to 100 scale
Method in brief: (§1)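 Test compounds in non-phytotoxic solvent with surfactant were applied as a preemergence soil spray to seeded loam/sand pots and, concurrently, postemergence to plants at 2–10 cm, one- to two-leaf stage. About ten days in greenhouse, then injury visually rated against untreated controls.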

rice = experiment: Test C flooded paddy test; assay type: in vivo, Oryza sativa; settings: Flood
Method in brief: (§2)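 Test compounds are applied straight into paddy water held 3 cm above the soil surface, with that flood maintained for the whole test. After 13 to 15 days in the greenhouse, each species is scored visually relative to controls.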

corn = experiment: Test A pre-/postemergence greenhouse test; assay type: in vivo, Zea mays; settings: for Plant response rating, Corn: 0 to 100 scale where 0 is no effect and 100 is complete control; for Corn plant response rating: 0 to 100 scale
Method in brief: as §1

barnyardgrass [1] = experiment: Test C flooded paddy test; assay type: in vivo, Echinochloa crus-galli; settings: Flood
Method in brief: as §2

morningglory = experiment: Test A pre-/postemergence greenhouse test; assay type: in vivo, Ipomoea spp.; settings: for Plant response rating, Morningglory: 0 to 100 scale where 0 is no effect and 100 is complete control; for Morningglory plant response rating: 0 to 100 scale
Method in brief: as §1

velvetleaf = experiment: Test A pre-/postemergence greenhouse test; assay type: in vivo, Abutilon theophrasti; settings: for Plant response rating, Velvetleaf: 0 to 100 scale where 0 is no effect and 100 is complete control; for Velvetleaf plant response rating: 0 to 100 scale
Method in brief: as §1

redroot pigweed = experiment: Test A pre-/postemergence greenhouse test; assay type: in vivo, Amaranthus retroflexus; settings: for Plant response rating, Pigweed: 0 to 100 scale where 0 is no effect and 100 is complete control; for Pigweed plant response rating: 0 to 100 scale
Method in brief: as §1

giant foxtail = experiment: Test A pre-/postemergence greenhouse test; assay type: in vivo, Setaria faberi; settings: for Plant response rating, Foxtail, Giant: 0 to 100 scale where 0 is no effect and 100 is complete control; for Foxtail, Giant plant response rating: 0 to 100 scale
Method in brief: as §1

barnyardgrass [2] = experiment: Test A pre-/postemergence greenhouse test; assay type: in vivo, Echinochloa crus-galli; settings: for Plant response rating, Barnyardgrass: 0 to 100 scale where 0 is no effect and 100 is complete control; for Barnyardgrass plant response rating: 0 to 100 scale
Method in brief: as §1

crabgrass = experiment: Test A pre-/postemergence greenhouse test; assay type: in vivo, Digitaria sanguinalis; settings: for Plant response rating, Crabgrass, Large: 0 to 100 scale where 0 is no effect and 100 is complete control; for Crabgrass, Large plant response rating: 0 to 100 scale
Method in brief: as §1

duck salad = experiment: Test C flooded paddy test; assay type: in vivo, Heteranthera limosa; settings: Flood
Method in brief: as §2

umbrella sedge = experiment: Test C flooded paddy test; assay type: in vivo, Cyperus difformis; settings: Flood
Method in brief: as §2

[3] = Postemergence, 500 g ai/ha, 0 is no effect, 100 is complete control
[4] = Preemergence, 125 g ai/ha, 0 no effect, 100 complete control
[5] = Preemergence, 500 g ai/ha, 0 no effect, 100 complete control
[6] = 31 g ai/ha, scale 0 to 100 (0 no effect, 100 complete control)
[7] = 62 g ai/ha, scale 0 to 100 (0 no effect, 100 complete control)
[8] = 125 g ai/ha, scale 0 to 100, 0 no effect, 100 complete control, 13 to 15 days
[9] = 250 g ai/ha, scale 0 to 100, 0 no effect, 100 complete control, 13 to 15 days

Cn1nc(C(F)(F)F)c(CS(=O)(=O)c2ccc(F)c[n+]2[O-])c1OC(F)F [Compound 107]
Plant response rating, Wheat (wheat; Postemergence, 125 g ai/ha): 0
Wheat plant response rating (wheat; [3]): 0
Wheat plant response rating (wheat; [4]): 0
Wheat plant response rating (wheat; [5]): 0
Plant response rating, Rice (rice; [6]): 0
Plant response rating, Rice (rice; [7]): 0
Plant response rating, Rice (rice; [8]): 0
Plant response rating, Rice (rice; [9]): 0
Plant response rating, Corn (corn; Postemergence, 125 g ai/ha): 0
Corn plant response rating (corn; [3]): 0
Corn plant response rating (corn; [4]): 0
Corn plant response rating (corn; [5]): 0
Plant response rating, Barnyardgrass (barnyardgrass [1]; [6]): 0
Plant response rating, Barnyardgrass (barnyardgrass [1]; [7]): 0
Plant response rating, Barnyardgrass (barnyardgrass [1]; [8]): 20
Plant response rating, Barnyardgrass (barnyardgrass [1]; [9]): 40
Plant response rating, Morningglory (morningglory; Postemergence, 125 g ai/ha): 0
Morningglory plant response rating (morningglory; [3]): 50
Morningglory plant response rating (morningglory; [4]): 0
Morningglory plant response rating (morningglory; [5]): 60
Plant response rating, Velvetleaf (velvetleaf; Postemergence, 125 g ai/ha): 0
Velvetleaf plant response rating (velvetleaf; [3]): 0
Velvetleaf plant response rating (velvetleaf; [4]): 0
Velvetleaf plant response rating (velvetleaf; [5]): 10
Plant response rating, Pigweed (redroot pigweed; Postemergence, 125 g ai/ha): 40
Pigweed plant response rating (redroot pigweed; [3]): 50
Pigweed plant response rating (redroot pigweed; [4]): 40
Pigweed plant response rating (redroot pigweed; [5]): 60
Plant response rating, Foxtail, Giant (giant foxtail; Postemergence, 125 g ai/ha): 70
Foxtail, Giant plant response rating (giant foxtail; [3]): 80
Foxtail, Giant plant response rating (giant foxtail; [4]): 60
Foxtail, Giant plant response rating (giant foxtail; [5]): 90
Plant response rating, Barnyardgrass (barnyardgrass [2]; Postemergence, 125 g ai/ha): 40
Barnyardgrass plant response rating (barnyardgrass [2]; [3]): 60
Barnyardgrass plant response rating (barnyardgrass [2]; [4]): 70
Barnyardgrass plant response rating (barnyardgrass [2]; [5]): 90
Plant response rating, Crabgrass, Large (crabgrass; Postemergence, 125 g ai/ha): 70
Crabgrass, Large plant response rating (crabgrass; [3]): 80
Crabgrass, Large plant response rating (crabgrass; [4]): 60
Crabgrass, Large plant response rating (crabgrass; [5]): 80
Plant response rating, Ducksalad (duck salad; [6]): 0
Plant response rating, Ducksalad (duck salad; [7]): 0
Plant response rating, Ducksalad (duck salad; [8]): 0
Plant response rating, Ducksalad (duck salad; [9]): 65
Plant response rating, Sedge, Umbrella (umbrella sedge; [6]): 0
Plant response rating, Sedge, Umbrella (umbrella sedge; [7]): 0
Plant response rating, Sedge, Umbrella (umbrella sedge; [8]): 0
Plant response rating, Sedge, Umbrella (umbrella sedge; [9]): 20

Cn1nc(C(F)(F)F)c(CS(=O)(=O)c2ccc(F)c[n+]2[O-])c1OCC(F)(F)F [Compound 106]
Plant response rating, Wheat (wheat; Postemergence, 125 g ai/ha): 0
Wheat plant response rating (wheat; [3]): 0
Wheat plant response rating (wheat; [4]): 0
Wheat plant response rating (wheat; [5]): 0
Plant response rating, Rice (rice; [6]): 0
Plant response rating, Rice (rice; [7]): 0
Plant response rating, Rice (rice; [8]): 20
Plant response rating, Rice (rice; [9]): 25
Plant response rating, Corn (corn; Postemergence, 125 g ai/ha): 0
Corn plant response rating (corn; [3]): 0
Corn plant response rating (corn; [4]): 0
Corn plant response rating (corn; [5]): 0
Plant response rating, Barnyardgrass (barnyardgrass [1]; [6]): 0
Plant response rating, Barnyardgrass (barnyardgrass [1]; [7]): 0
Plant response rating, Barnyardgrass (barnyardgrass [1]; [8]): 15
Plant response rating, Barnyardgrass (barnyardgrass [1]; [9]): 20
Plant response rating, Morningglory (morningglory; Postemergence, 125 g ai/ha): 0
Morningglory plant response rating (morningglory; [3]): 30
Morningglory plant response rating (morningglory; [4]): 10
Morningglory plant response rating (morningglory; [5]): 50
Plant response rating, Velvetleaf (velvetleaf; Postemergence, 125 g ai/ha): 0
Velvetleaf plant response rating (velvetleaf; [3]): 20
Velvetleaf plant response rating (velvetleaf; [4]): 0
Velvetleaf plant response rating (velvetleaf; [5]): 60
Plant response rating, Pigweed (redroot pigweed; Postemergence, 125 g ai/ha): 0
Pigweed plant response rating (redroot pigweed; [3]): 50
Pigweed plant response rating (redroot pigweed; [4]): 70
Pigweed plant response rating (redroot pigweed; [5]): 80
Plant response rating, Foxtail, Giant (giant foxtail; Postemergence, 125 g ai/ha): 50
Foxtail, Giant plant response rating (giant foxtail; [3]): 80
Foxtail, Giant plant response rating (giant foxtail; [4]): 40
Foxtail, Giant plant response rating (giant foxtail; [5]): 80
Plant response rating, Barnyardgrass (barnyardgrass [2]; Postemergence, 125 g ai/ha): 40
Barnyardgrass plant response rating (barnyardgrass [2]; [3]): 70
Barnyardgrass plant response rating (barnyardgrass [2]; [4]): 40
Barnyardgrass plant response rating (barnyardgrass [2]; [5]): 90
Plant response rating, Crabgrass, Large (crabgrass; Postemergence, 125 g ai/ha): 30
Crabgrass, Large plant response rating (crabgrass; [3]): 80
Crabgrass, Large plant response rating (crabgrass; [4]): 60
Crabgrass, Large plant response rating (crabgrass; [5]): 80
Plant response rating, Ducksalad (duck salad; [6]): 0
Plant response rating, Ducksalad (duck salad; [7]): 50
Plant response rating, Ducksalad (duck salad; [8]): 60
Plant response rating, Ducksalad (duck salad; [9]): 80
Plant response rating, Sedge, Umbrella (umbrella sedge; [6]): 0
Plant response rating, Sedge, Umbrella (umbrella sedge; [7]): 0
Plant response rating, Sedge, Umbrella (umbrella sedge; [8]): 0
Plant response rating, Sedge, Umbrella (umbrella sedge; [9]): 30
